Experimental data: patent US20260365670A1, “EGFR INHIBITORS AND USES THEREOF” (DIZAL (JIANGSU) PHARMACEUTICAL CO., LTD., priority 2022, published 2026)
Where two headings read alike, the source gives them in different places.

Tests used:
EGFR wild type = target: T1, EGFR wild type (Homo sapiens, UniProt P00533); experiment: Inhibition of EGFR wild type biochemical enzymatic activity (HTRF); conditions: EGFR WT, 1 mM ATP, 1 h, room temperature, read-out: IC50 (nM) @WT
T1 construct: purchased Carna Bio
Method in brief: (§1)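 1 mM ATP, 1 μM biotin-TK peptide, 5 mM MgCl2, 1 mM MnCl2, 0.01% CHAPS, 1 mM DTT, 0.5% DMSO; 1 h RT; EDTA stop; HTRF 665/615 nm; IC50 via 4PL.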

EGFR L858R = target: T2, EGFR L858R (Homo sapiens, UniProt P00533, L858R); experiment: Inhibition of EGFR L858R biochemical enzymatic activity (HTRF); conditions: 1 mM ATP, 1 h, room temperature, read-out: IC50 (nM) @L858R
T2 construct: purchased Carna Bio
Method in brief: as §1

EGFR L858R/T790M = target: T3, EGFR L858R/T790M (Homo sapiens, UniProt P00533, L858R/T790M); experiment: Inhibition of EGFR L858R/T790M biochemical enzymatic activity (HTRF); conditions: EGFR L858R-T790M, 1 mM ATP, 1 h, room temperature, read-out: IC50 (nM) @L858R-T790M
T3 construct: purchased Carna Bio
Method in brief: as §1

EGFR Exon19Del = target: T4, EGFR Exon19Del (Homo sapiens, UniProt P00533, DEL746-750); experiment: Inhibition of EGFR Exon19Del biochemical enzymatic activity (HTRF); conditions: EGFR Del19, 1 mM ATP, 1 h, room temperature, read-out: IC50 @Del19
T4 construct: purchased Carna Bio
Method in brief: as §1

EGFR Exon19Del/T790M = target: T5, EGFR Exon19Del/T790M (Homo sapiens, UniProt P00533, DEL746-750/T790M); experiment: Inhibition of EGFR Exon19Del/T790M biochemical enzymatic activity (HTRF); conditions: EGFR Del19-T790M, 1 mM ATP, 1 h, room temperature, read-out: IC50 (nM) @Del19-T790M
T5 construct: purchased Carna Bio
Method in brief: as §1

EGFR[T790M/C797S/L858R] = target: T6, EGFR[T790M/C797S/L858R] (Homo sapiens, UniProt P00533, C797S/L858R/T790M); experiment: Inhibition of EGFR[T790M/C797S/L858R] biochemical enzymatic activity (HTRF); conditions: EGFR T790M-C797S-L858R, 1 mM ATP, 1 h, room temperature, read-out: IC50 (nM) @T790M- C797S - L858R
T6 construct: purchased Carna Bio
Method in brief: as §1

[1] = target: T7, EGFR[T790M/C797S/d746-750] (Homo sapiens, UniProt P00533, C797S/DEL746-750/T790M); experiment: Inhibition of EGFR[T790M/C797S/d746-750] biochemical enzymatic activity (HTRF); conditions: EGFR T790M-C797S-Del19, 1 mM ATP, 1 h, room temperature, read-out: IC50 (nM) @T790M - C797S - Del19
T7 construct: purchased Carna Bio
Method in brief: as §1

EGFR (d746-750 C797S) = target: T8, EGFR (d746-750 C797S) (Homo sapiens, UniProt P00533, C797S/DEL746-750); experiment: Inhibition of EGFR (d746-750 C797S) biochemical enzymatic activity (HTRF); conditions: EGFR Del19-C797S, 1 mM ATP, 1 h, room temperature, read-out: IC50 (nM) @Del19-C797S
T8 construct: purchased signalchem
Method in brief: as §1

EGFR (C797S L858R) = target: T9, EGFR (C797S L858R) (Homo sapiens, UniProt P00533, C797S/L858R); experiment: Inhibition of EGFR (C797S L858R) biochemical enzymatic activity (HTRF); conditions: EGFR L858-C797S, 1 mM ATP, 1 h, room temperature, read-out: IC50 (nM) @L858-C797S
T9 construct: purchased signalchem
Method in brief: as §1

[2] = test system: Ba/F3 cells expressing EGFR mutations; experiment: Cell proliferation assay, Ba/F3 cells expressing EGFR mutations (CellTiter-Glo, 72 hours); assay type: cell-based; conditions: CellTiter-Glo
Method in brief: (§2)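 Ba/F3 cells (5000/well) and PC-9 cells (500/well, RPMI1640 with 10% FBS) were plated overnight and then dosed with a compound concentration series. Viable cells were read at day 0 (G0) and after treatment (G3). GI50 came from curve fits of G0-corrected proliferation relative to DMSO.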

PC-9 = experiment: Cell proliferation assay, PC-9 cells (CellTiter-Glo, 72 hours); assay type: cell-based; conditions: PC9 cells, CellTiter-Glo, read-out: PC9 GI50
Method in brief: as §2

A-431 = experiment: Cell proliferation GI50, A-431 cells (Table 6); assay type: cell-based
[3] = BaF3 cells, EGFR DEL19-C797S, read-out: DEL19-C797S/BaF3 GI50
[4] = BaF3 cells, EGFR DEL19-T790-C797S, read-out: DEL19-T790-C797S/BaF3 GI50
[5] = BaF3 cells, EGFR L858R, read-out: L858R/BaF3 GI50
[6] = BaF3 cells, EGFR L858R-C797S, read-out: L858R-C797S/BaF3 GI50
[7] = BaF3 cells, EGFR L858R-T790-C797S, read-out: L858R-T790-C797S/BaF3 GI50
[8] = BaF3 cells, EGFR L858R-T790M, read-out: L858R-T790M/BaF3 GI50
[9] = EGFR DEL19-T790M, read-out: DEL19-T790M GI50

T2 sequence (P00533 25-1210 L858R): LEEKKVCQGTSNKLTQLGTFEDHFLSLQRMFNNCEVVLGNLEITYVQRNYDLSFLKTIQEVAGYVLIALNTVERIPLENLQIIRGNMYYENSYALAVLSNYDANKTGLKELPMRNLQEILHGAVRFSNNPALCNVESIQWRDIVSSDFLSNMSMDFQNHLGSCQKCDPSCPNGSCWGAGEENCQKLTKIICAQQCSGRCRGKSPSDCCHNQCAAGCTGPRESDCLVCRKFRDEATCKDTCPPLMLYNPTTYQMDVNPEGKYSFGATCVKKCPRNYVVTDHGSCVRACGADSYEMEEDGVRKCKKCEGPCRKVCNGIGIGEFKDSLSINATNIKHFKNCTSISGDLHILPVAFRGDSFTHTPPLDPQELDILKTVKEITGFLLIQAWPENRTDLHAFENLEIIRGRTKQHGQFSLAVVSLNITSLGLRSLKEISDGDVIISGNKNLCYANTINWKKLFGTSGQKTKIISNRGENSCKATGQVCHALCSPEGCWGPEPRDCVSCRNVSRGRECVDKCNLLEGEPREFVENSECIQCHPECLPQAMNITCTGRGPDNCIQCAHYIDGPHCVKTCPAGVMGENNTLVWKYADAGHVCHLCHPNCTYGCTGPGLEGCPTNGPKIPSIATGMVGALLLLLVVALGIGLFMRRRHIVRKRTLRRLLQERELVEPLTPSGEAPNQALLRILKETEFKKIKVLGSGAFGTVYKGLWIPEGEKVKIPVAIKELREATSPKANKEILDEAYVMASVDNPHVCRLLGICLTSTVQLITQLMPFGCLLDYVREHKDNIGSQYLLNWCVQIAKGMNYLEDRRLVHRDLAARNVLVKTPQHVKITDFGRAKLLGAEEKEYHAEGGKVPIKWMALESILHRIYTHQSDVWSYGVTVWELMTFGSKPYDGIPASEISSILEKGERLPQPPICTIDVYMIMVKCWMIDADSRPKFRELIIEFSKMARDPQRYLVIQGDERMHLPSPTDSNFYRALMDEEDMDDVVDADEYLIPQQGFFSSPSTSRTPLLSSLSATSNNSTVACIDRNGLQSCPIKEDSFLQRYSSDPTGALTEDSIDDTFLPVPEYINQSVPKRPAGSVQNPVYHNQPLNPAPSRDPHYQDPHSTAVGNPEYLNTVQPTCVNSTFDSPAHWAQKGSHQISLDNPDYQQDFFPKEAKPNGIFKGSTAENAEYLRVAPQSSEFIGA
T1 sequence (P00533 25-1210): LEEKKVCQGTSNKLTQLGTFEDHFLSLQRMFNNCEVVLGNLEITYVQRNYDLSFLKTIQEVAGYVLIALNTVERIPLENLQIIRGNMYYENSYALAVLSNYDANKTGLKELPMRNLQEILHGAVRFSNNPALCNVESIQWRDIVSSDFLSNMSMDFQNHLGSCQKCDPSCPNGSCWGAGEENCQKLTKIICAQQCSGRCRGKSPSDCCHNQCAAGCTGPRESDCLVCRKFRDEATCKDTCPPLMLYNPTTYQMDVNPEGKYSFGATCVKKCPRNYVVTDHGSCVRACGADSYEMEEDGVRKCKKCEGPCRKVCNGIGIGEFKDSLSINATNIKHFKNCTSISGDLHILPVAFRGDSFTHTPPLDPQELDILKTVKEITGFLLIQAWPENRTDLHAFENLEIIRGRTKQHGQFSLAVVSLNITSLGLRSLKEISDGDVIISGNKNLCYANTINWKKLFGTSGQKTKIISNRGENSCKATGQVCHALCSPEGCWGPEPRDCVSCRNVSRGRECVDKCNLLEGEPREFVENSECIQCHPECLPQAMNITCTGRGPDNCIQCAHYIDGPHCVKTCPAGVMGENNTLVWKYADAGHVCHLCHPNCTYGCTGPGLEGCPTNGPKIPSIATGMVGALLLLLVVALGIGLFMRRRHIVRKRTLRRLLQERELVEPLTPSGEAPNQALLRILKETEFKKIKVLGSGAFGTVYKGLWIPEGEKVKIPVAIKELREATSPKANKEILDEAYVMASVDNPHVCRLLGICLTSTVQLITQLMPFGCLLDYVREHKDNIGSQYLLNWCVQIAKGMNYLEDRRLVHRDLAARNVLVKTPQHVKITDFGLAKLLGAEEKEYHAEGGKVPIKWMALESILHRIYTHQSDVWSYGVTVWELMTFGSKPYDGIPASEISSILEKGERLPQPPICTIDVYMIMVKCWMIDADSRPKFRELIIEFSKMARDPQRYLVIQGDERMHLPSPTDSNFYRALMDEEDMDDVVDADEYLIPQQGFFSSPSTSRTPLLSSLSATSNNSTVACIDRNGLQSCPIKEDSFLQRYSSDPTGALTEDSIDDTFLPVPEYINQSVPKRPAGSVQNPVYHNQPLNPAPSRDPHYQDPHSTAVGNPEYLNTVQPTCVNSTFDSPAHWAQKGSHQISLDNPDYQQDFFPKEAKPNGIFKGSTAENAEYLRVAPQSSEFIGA
T5 sequence (P00533 with tags, fused parts or gaps DEL746-750/T790M limits assumed): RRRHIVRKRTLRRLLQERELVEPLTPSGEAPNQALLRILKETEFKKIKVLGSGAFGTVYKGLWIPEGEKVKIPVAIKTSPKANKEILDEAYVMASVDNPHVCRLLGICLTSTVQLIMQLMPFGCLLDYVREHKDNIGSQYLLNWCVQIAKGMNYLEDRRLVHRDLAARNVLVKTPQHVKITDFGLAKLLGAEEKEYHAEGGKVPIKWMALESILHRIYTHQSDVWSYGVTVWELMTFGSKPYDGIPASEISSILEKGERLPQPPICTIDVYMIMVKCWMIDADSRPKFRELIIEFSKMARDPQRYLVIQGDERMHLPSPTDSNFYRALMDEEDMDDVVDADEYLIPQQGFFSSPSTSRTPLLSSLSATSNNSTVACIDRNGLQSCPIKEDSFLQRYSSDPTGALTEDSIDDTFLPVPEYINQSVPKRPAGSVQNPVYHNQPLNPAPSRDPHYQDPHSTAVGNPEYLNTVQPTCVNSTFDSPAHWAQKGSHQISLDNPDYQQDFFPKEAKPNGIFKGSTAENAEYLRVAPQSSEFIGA
T9 sequence (P00533 25-1210 C797S/L858R): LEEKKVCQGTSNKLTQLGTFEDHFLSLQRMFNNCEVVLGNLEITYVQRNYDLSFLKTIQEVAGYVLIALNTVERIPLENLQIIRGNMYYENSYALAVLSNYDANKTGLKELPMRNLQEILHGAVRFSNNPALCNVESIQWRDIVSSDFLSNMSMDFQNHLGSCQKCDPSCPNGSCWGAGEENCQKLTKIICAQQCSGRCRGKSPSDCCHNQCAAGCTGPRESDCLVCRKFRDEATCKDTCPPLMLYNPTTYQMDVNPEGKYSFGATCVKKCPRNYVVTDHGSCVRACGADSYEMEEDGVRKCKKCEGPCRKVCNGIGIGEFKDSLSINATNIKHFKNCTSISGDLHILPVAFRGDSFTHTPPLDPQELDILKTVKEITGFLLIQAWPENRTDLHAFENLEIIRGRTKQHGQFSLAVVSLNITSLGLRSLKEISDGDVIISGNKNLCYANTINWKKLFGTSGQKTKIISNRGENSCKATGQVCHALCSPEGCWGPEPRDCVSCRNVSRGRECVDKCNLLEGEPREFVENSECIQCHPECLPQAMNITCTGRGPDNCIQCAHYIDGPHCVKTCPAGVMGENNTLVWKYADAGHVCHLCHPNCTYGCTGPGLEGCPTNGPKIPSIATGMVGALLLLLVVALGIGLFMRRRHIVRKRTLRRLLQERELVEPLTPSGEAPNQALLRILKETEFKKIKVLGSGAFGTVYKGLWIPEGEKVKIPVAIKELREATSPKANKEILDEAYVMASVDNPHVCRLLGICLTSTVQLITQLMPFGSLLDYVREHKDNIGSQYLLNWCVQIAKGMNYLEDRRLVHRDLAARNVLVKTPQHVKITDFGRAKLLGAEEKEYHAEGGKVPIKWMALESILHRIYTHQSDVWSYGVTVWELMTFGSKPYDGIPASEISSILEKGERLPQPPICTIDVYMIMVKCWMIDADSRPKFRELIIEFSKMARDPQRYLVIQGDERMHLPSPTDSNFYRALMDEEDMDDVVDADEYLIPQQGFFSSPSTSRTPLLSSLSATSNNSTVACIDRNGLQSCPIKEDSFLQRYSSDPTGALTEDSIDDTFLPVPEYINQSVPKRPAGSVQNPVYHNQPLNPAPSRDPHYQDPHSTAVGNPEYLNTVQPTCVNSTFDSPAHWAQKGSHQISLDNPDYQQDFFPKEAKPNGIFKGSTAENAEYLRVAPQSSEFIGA
T4 sequence (P00533 with tags, fused parts or gaps DEL746-750 limits assumed): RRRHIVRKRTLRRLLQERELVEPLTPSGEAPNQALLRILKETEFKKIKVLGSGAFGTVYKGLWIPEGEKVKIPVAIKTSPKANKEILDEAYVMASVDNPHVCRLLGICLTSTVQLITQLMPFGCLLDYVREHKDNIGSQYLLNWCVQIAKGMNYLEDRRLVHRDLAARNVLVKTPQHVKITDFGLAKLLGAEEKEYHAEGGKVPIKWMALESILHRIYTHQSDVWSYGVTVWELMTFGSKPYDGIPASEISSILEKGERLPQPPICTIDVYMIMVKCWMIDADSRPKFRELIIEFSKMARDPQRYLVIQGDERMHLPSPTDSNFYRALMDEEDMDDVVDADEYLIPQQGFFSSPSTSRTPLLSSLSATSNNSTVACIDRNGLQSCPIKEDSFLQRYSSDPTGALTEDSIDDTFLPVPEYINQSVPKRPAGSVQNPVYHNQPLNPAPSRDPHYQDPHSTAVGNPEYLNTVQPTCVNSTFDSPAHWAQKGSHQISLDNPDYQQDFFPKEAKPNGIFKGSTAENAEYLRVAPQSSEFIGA

SMILES	IC50 (EGFR wild type)	IC50 (EGFR L858R)	IC50 (EGFR L858R/T790M)	IC50 (EGFR Exon19Del)	IC50 (EGFR Exon19Del/T790M)	IC50 (EGFR[T790M/C797S/L858R])	IC50 [1]	IC50 (EGFR (d746-750 C797S))	IC50 (EGFR (C797S L858R))	GI50 [2, 3]	GI50 [2, 4]	GI50 [2, 5]	GI50 [2, 6]	GI50 [2, 7]	GI50 [2, 8]	GI50 [2, 9]	GI50 (PC-9)	GI50 (A-431; A-431 cells)	GI50 (A-431; Homo sapiens, A-431, A-431 cells)
Cn1ncc2c1OCCN1CC3CCC(C3)(C1)n1c(nc3ccc(N4CCC(N5CC(F)C5)CC4)cc31)NC(=O)c1cc-2c(=O)n(C)c1 (single isomer, unassigned) [Example A87A]	> 5000 nM	4480 nM	> 5000 nM	842 nM	> 5000 nM	> 5000 nM	4000 nM	995 nM	> 5000 nM	61 nM	238 nM	178 nM	124 nM	233 nM	311 nM	192 nM	452 nM	382 nM	–
Cn1ncc2c1OCCN1CC3CCC(C3)(C1)n1c(nc3ccc(N4CCC(N5CC(F)C5)CC4)cc31)NC(=O)c1cc-2c(=O)n(C)c1 (single isomer, unassigned) [Example A87B]	36 nM	9.3 nM	8.8 nM	2.8 nM	9.5 nM	8.7 nM	8.6 nM	4.1 nM	8.9 nM	0.7 nM	4 nM	4.6 nM	7.9 nM	7.7 nM	13 nM	3.4 nM	25 nM	5970 nM	–
CN1CCC2(CC1)CCN(c1ccc3nc4n(c3c1)C13CCC(CN(CCOc5c(cnn5C)-c5cc(cn(C)c5=O)C(=O)N4)C1)C3)C2 (single isomer, unassigned) [Example A88A]	> 5000 nM	> 5000 nM	> 5000 nM	477 nM	> 5000 nM	> 5000 nM	> 5000 nM	1160 nM	> 5000 nM	57 nM	159 nM	119 nM	100 nM	252 nM	361 nM	163 nM	611 nM	6260 nM	–
CN1CCC2(CC1)CCN(c1ccc3nc4n(c3c1)C13CCC(CN(CCOc5c(cnn5C)-c5cc(cn(C)c5=O)C(=O)N4)C1)C3)C2 (single isomer, unassigned) [Example A88B]	12 nM	4.8 nM	4.9 nM	2.5 nM	4.9 nM	2.8 nM	4.6 nM	2.2 nM	4.2 nM	0.63 nM	1 nM	0.84 nM	3.4 nM	1.7 nM	8.8 nM	1 nM	21 nM	2200 nM	–
CN(C)CCCN(C)c1ccc2nc3n(c2c1)C12CCC(CN(CCOc4c(cnn4C)-c4cc(cn(C)c4=O)C(=O)N3)C1)C2 (single isomer, unassigned) [Example A89A]	> 5000 nM	3600 nM	> 5000 nM	250 nM	> 5000 nM	> 5000 nM	> 5000 nM	573 nM	> 5000 nM	103 nM	178 nM	135 nM	165 nM	280 nM	367 nM	115 nM	791 nM	6390 nM	–
CN(C)CCCN(C)c1ccc2nc3n(c2c1)C12CCC(CN(CCOc4c(cnn4C)-c4cc(cn(C)c4=O)C(=O)N3)C1)C2 (single isomer, unassigned) [Example A89B]	134 nM	16 nM	7.4 nM	1.9 nM	3.8 nM	5.4 nM	4 nM	2.2 nM	11 nM	0.57 nM	3.2 nM	2.2 nM	3.8 nM	4.1 nM	9.2 nM	2.6 nM	28 nM	1700 nM	–
COCCN(C)c1ccc2nc3n(c2c1)C12CCC(CN(CCOc4c(cnn4C)-c4cc(cn(C)c4=O)C(=O)N3)C1)C2 (single isomer, unassigned) [Example A90A]	> 5000 nM	> 5000 nM	> 5000 nM	1710 nM	> 5000 nM	> 5000 nM	> 5000 nM	749 nM	> 5000 nM	128 nM	393 nM	540 nM	249 nM	721 nM	977 nM	321 nM	2100 nM	–	4270 nM
